Test [1] relates to KA (25 μM) neurotoxicity in chick embryo retina. The experiment in a line: NMDA/KA Antagonist Assay: prevention of KA neurotoxicity in chick embryo retina. The following applies: 15-day old chick embryo retina, 30 min at 37° C., tested at various concentrations. Type of test: cell-based. How it is done:
(§1) A 15-day old chick embryo retina, incubated for 30 min. in a balanced salt solution (BSS) containing 1 mM Glu, developed a full lesion resembling that described in the immature mouse retina following s.c. administration of Glu. Other excitotoxin agonists also produce acute lesions within 30 min., each agent being effective at a concentration proportional to its known excitatory and toxic potencies. The pattern of cellular degeneration is restricted in each case to the ganglion cell, inner plexiform and inner nuclear layers, but within these areas certain agonists induce different patterns of degeneration, the differences being most pronounced between NMA and KA. Two agonists were employed in the present test, each at a concentration established previously to be the lowest concentration required to consistently cause a fully-developed retinal lesion: KA (25 μM) and NMA (200 μM). Mecamylamine was tested at various concentrations for its ability to prevent KA or NMA neurotoxicity. Although partial blocking was sometimes observed for antagonist concentrations below the threshold for complete protection, the criterion used for comparing agents for antagonist potency was the concentration required to completely prevent KA or NMA from exerting any toxic activity in any specimen (n>6) studied at that concentration. […]

Test [2] deals with PCP receptor (binding of the PCP ligand 3H-TCP). In words: Receptor Binding Assay: inhibition of 3H-TCP binding in frozen brain sections. The following applies: frozen brain sections (10 microns), 20 nM 3H-TCP, 45 min at 4° C., Scatchard/Rosenthal analysis. How it is done:
Prevention of the neurodegenerative consequences associated with conditions of hypoxia or ischemia may be accomplished with administration of a compound of Formula I. In particular, the compound 3-methylamino-2,2,3-trimethylbicyclo[2.2.1]heptane (mecamylamine) was evaluated in biological assays designed to detect compounds capable of inhibiting hypoxia/ischemia-induced neuronal degeneration. Mecamylamine was evaluated for its ability to inhibit the binding of the PCP ligand tritiated 1-[1-(2-thienyl)cyclohexyl]piperidine [^3 H-TCP].
For receptor binding, frozen brain sections (10 microns) were incubated in […] tris acetate (pH 7.25) containing 0.5 mM magnesium acetate and 20 nM ^3 H-TCP for 45 min. at 4° C. Non-specific binding was assessed with 200 μM PCP. Inhibition of ^3 H-TCP binding was studied by including potential inhibitors in the ^3 H-TCP incubation at concentrations from 10 nM to 1 mM. Dissociation and inhibition constants were calculated by Scatchard/Rosenthal analysis of data obtained by liquid scintillation counting of whole sections.

Test [3] deals with NMA (200 μM) neurotoxicity in chick embryo retina. In words: NMDA/KA Antagonist Assay: prevention of NMA neurotoxicity in chick embryo retina. Type of test: cell-based. The following applies: Gallus gallus, 0.5 h, 15-day old chick embryo retina, 30 min at 37° C., criterion: complete prevention of toxicity in all specimens, read-out: concentration providing total protection against toxicity of NMA. The method, then:
as §1

In general, Ki refers to a measure of affinity in units of concentration, obtained from inhibition or displacement. For `CNC1(C)C2CCC(C2)C1(C)C` (stereo not drawn) [mecamylamine, 3-(methylamino)-2,2,3-trimethylbicyclo[2.2.1]heptane], in test [1], the “blocking of KA toxicity” value was “not observed”. This compound also had a Ki in test [2] of 122 µM. The EC100 in test [3] is 100 µM.

These data come from patent US4837218A, “Alkylated bicycloalkaneamines for treatment of neurotoxic injury” (Washington University, priority 1987, dated 1989).
